“Also recorded” adds a separate entry of the source. Peptide text beside a SMILES is read from it.
Key:
[1] = system: ulcers induced by 95% ethanol; test: Healing of ethanol-induced gastric ulcers (Example 10); assay type: in vivo, rats; conditions: for # animals with rating 0 (no indication of ulceration) / # animals with rating 1 (some irritation) / # animals with rating 2 (small ulcers present) / # animals with rating 3 (large ulcers present): day 7; for Healing of ethanol-induced ulcers, in words: drinking water treatment, compared to controls
Description: (§1) A series of ethanol induced gastric ulcer studies was conducted. Ulcers were induced by oral administration of 95% ethyl alcohol (Scan. J. Gastroenterol 23:665-671 (1988)). The studies were conducted to determine both the preventative and healing effects of glycl-L-histidyl-L-lysine:Cu.
The ability of glycyl-L-histidyl-L-lysine:Cu (2:1) to heal ulcers induced by 95% ethanol has also been examined. In this study, ulcers were induced by administration of 4 ml/kg of 95% ethanol. The rats were then treated with glycyl-L-histidyl-L-lysine:Cu (2:1) in the drinking water at a dose of 0.01 mg/ml and 0.1 mg/ml (total dose per day of 1.6 mg/kg and 16 mg/kg, respectively). The rats were terminated at day 7 after ulcer induction and the stomachs examined for the presence of ulcers.
(§2) The following rating scale was used to express severity of ulceration:
(§3) 0--no indication of ulceration

[2] = system: gastric ulcers induced by 95% ethanol; test: Prevention of ethanol-induced gastric ulcers (Example 10); assay type: in vivo, SD rats; conditions: for Prevention of ethanol-caused gastric irritation and ulceration, in words: pretreatment, 95% ethanol ingestion; for Ulceration after ethanol, in words: stomachs inspected one hour after ethanol
Description: as §1
A dose of 2.0 ml/kg 95% ethanol was chosen to induce gastric ulcers in rats. Prior to the ethanol ingestion, three groups of rats were pretreated with 0.5 ml of 2% glycyl-L-histidyl-L-lysine:Cu (1:1) as follows:
Group 1: 2 hours prior to Ethanol dosing
Group 2: 4 hours prior to Ethanol dosing
Group 3: 6 hours prior to Ethanol dosing
In addition, 4 rats served as controls with no pretreatment. One hour following ethanol administration, the stomachs were removed and inspected for ulceration as described above.

[3] = system: Stomach ulcers induced by the Shay procedure; test: Shay model, stomach ulcer formation and acid secretion (Example 8); assay type: in vivo, rat; conditions: for Ulcer formation and stomach acid secretion, in words: Shay model, compared with saline controls; for pH: stomach contents after 24 hours; for % WITH ULCERS: positive if a single lesion is noted
Description: Stomach ulcers were induced in rats by the Shay procedure. Briefly, the passage between the stomach and the intestine in the rat is tied off, thereby causing a buildup of stomach acid. Ulcer formation is visible after 18-24 hours of ligation.
For treatment, the rats received either GHL-Cu or a derivative in 0.25 ml of saline into the stomach via a gastric feeding tube immediately after the surgical procedure. Control rats received saline only. After 24 hours, the rats were sacrificed, the stomachs were removed and photographed. The acidity of the stomach contents was also measured.
In the experiments reported here, the rats were treated with various doses of glycyl-L-histidyl-L-lysine (GHL), GHL-Cu (2:1), or GHL-Cu (1:1) complex of various analogs of GHL as the 1:1 copper complexes.
Stomach ulcers were induced in groups of rats as described above. The animals were dosed with increasing amounts of either GHL:Cu at a molar ration of 2 moles of GHL to 1 mole of Cu (2:1), equimolar complex (1:1), and GHL without copper. After 24 hours, the stomachs were removed, the pH was determined and the percent of stomachs with visible ulcers was determined.
The presence of ulcers is scored positive if a single lesion is noted, regardless of the size.

[4] = system: Stomach ulcers induced by the Shay procedure (buildup of stomach acid); test: Shay model, stomach acidity and mucous secretion (Example 7); assay type: in vivo, rat; design: key to Mucous Production: 0 represented substantially no mucous observed; ++++ represented a very heavy mucous secretion; conditions: rats, after 24 hours; for Stomach acidity pH ± standard deviation: 10 mg in 0.25 ml saline intubated into the stomach
Description: Stomach ulcers were induced in rates by the Shay procedure. Briefly stated, the passage between the stomach and the intestine in the rat is tied off, thereby causing a buildup of stomach acid, resulting in ulceration. For treatment, the rats received 10 mg of GHL or GHL-Cu or a derivative thereof in 0.25 ml saline intubated into the stomach. Control rats received saline only. After 24 hours, the stomachs were photographed and the stomach acidity determined.
The results of the experiments are shown in Table 1, which depicts the inhibition of stomach acid accumulation and stimulation of cytoprotective mucous secretion in the rats. The mucous production was visually rated from 0 to ++++, where 0 represented substantially no mucous observed and ++++ represented a very heavy mucous secretion.

[5] = system: Duodenal ulcers induced by cysteamine; test: Healing of cysteamine-induced duodenal ulcers (Example 9); assay type: in vivo, S.D. rats; conditions: for Healing of duodenal ulcers, in words: drinking water treatment, compared to controls
Description: Cysteamine will induce chronic duodenal ulcers in rats when injected subcutaneously (Olsen, P. S., Poulsen, S. S., Therkelsen, K., and Nexo, E., Oral administration of synthetic human urogastrone promotes healing of chronic duodenal ulcers in rats, Gastroenterology 90:911-917 (1986)).
Duodenal ulcers were induced in a group of 40 S.D. rats (male and female) by subcutaneous injections of cysteamine (350 mg/kg and 175 mg/kg) 6 hours apart. Saline was injected subcutaneously (5 cc) to provide fluid. Surviving animals (n=34) were followed for 7 days then laparotomies were performed. External examinations of the duodenum were made to determine extent of adhesion of the liver or other surrounding tissues. Animals with duodenal ulcers were randomized (by sex) to receive GHL-Cu (2:1) in distilled water, or plain distilled water. Animals were maintained for 25 days after which they were sedated, stomachs and duodenums removed and dissected for internal inspection. The results were obtained and recorded, specimens immersed in 10% buffered formalin for analysis with a stereomicroscope.
as §2, §3
1--mild ulceration, no extension through duodenum
2--moderate ulceration, fixation of surrounding tissue
3--extreme ulceration through duodenum
On the day of laparotomy, 28 rats ([…]) were determined to have significant adhesion of the duodenum to surrounding tissues. These animals were randomized by sex to either the GHL-Cu or control group. Following 25 days of drinking water treatment (total dose per day of 0.6 mg/kg), rats were sedated and prepped for dissection. The stomach and duodenum were removed, notations made as to extent of residual adhesions. Internal inspection of the duodenum was made prior to immersion of specimen in 10% formalin. Results at the time of gross inspection indicated 11 out of 14 control animals had significant residual ulcerations extending to the liver primarily.

[6] = GHL-Cu (2:1) 0.01 mg/ml in drinking water (1.6 mg/kg per day)
[7] = GHL-Cu (2:1) 0.1 mg/ml in drinking water (16 mg/kg per day)
[8] = microscopic examination, 25 days drinking water, 0.6 mg/kg per day

Row | Molecule | Healing of ethanol-induced ulcers, in words [1] | Prevention of ethanol-caused gastric irritation and ulceration, in words [2] | Ulcer formation and stomach acid secretion, in words [3] | Stomach acidity pH ± standard deviation [4] | Healing of duodenal ulcers, in words [5] | pH ([3]; dose 10 mg into stomach) | % WITH ULCERS ([3]; dose 10 mg, after 24 hours) | pH ([3]; dose 3 mg into stomach) | % WITH ULCERS ([3]; dose 3 mg, after 24 hours) | other results
1 | glycyl-L-histidyl-L-lysine:copper(II) [GHL-Cu] | majority of the animals had no demonstrable ulcers; also recorded: accelerate the healing of ulcers | prevent gastric irritation and ulceration | decreased stomach acid secretion and resulted in fewer visible lesions | 6.94 ± 0.25 pH | accelerate the healing of established duodenal ulcers |  |  |  |  | # animals with rating 0 (no indication of ulceration) [1, 6]: 5 animals; # animals with rating 1 (some irritation) [1, 6]: 2 animals; # animals with rating 2 (small ulcers present) [1, 6]: 0 animals; # animals with rating 3 (large ulcers present) [1, 6]: 0 animals; # animals with rating 0 (no indication of ulceration) [1, 7]: 5 animals; # animals with rating 1 (some irritation) [1, 7]: 1 animals; # animals with rating 2 (small ulcers present) [1, 7]: 1 animals; # animals with rating 3 (large ulcers present) [1, 7]: 0 animals; Mucous Production ([4]; 10 mg in 0.25 ml saline, visually rated 0 to ++++): ++++; Animals with residual ulcerations at gross inspection ([5]; GHL-Cu (2:1) in drinking water 25 days, 0.6 mg/kg per day, control 11 out of 14): 7 out of 14
2 | NCCCC[C@H](NC(=O)[C@H](Cc1c[nH]cn1)NC(=O)CN)C(=O)O [GHL, glycyl-L-histidyl-L-lysine] (H-Gly-His-Lys-OH) |  |  |  | 3.26 ± 0.47 pH |  | 2.84 ± 0.90 pH | 40% |  |  | 
3 | glycyl-L-histidyl-L-lysine:Cu (2:1) [GHL-Cu(2:1)] |  |  | inhibited ulcer formation and raised the pH of the stomach contents in a dose responsive manner |  | the severity was reduced | 6.38 ± 1.01 pH | 11% | 2.72 ± 1.03 pH | 50% | # animals with rating 0 (no indication of ulceration) [5, 8]: 4 animals; # animals with rating 1 (mild ulceration, no extension through duodenum) [5, 8]: 5 animals; # animals with rating 2 (moderate ulceration, fixation of surrounding tissue) [5, 8]: 3 animals; # animals with rating 3 (extreme ulceration through duodenum) [5, 8]: 2 animals
4 | glycyl-L-histidyl-L-lysine n-octyl ester:copper(II) [GHL octyl ester:Cu] |  |  |  |  |  | 6.18 ± 0.98 pH | 0% | 3.50 ± 1.18 pH | 25% | 
5 | L-lysyl-L-histidyl-glycine:copper(II) [LGH-Cu] | accelerate the healing of ulcers | prevent gastric irritation and ulceration | decreased stomach acid secretion and resulted in fewer visible lesions |  | accelerate the healing of established duodenal ulcers |  |  | 3.61 ± 1.00 pH | 11% | 
6 | glycyl-L-histidyl-L-lysine:Cu (1:1) [GHL-Cu(1:1)] |  |  | inhibited ulcer formation and raised the pH of the stomach contents in a dose responsive manner |  |  | 7.23 ± 0.64 pH | 0% | 4.85 ± 1.17 pH | 0% | Ulceration after ethanol, in words ([2]; 0.5 ml of 2% solution 2 hours prior to 2.0 ml/kg 95% ethanol): No evidence of ulceration; also recorded: totally blocking damage; Ulceration after ethanol, in words ([2]; 0.5 ml of 2% solution 4 hours prior to 2.0 ml/kg 95% ethanol): Significantly better than controls, however, small ulcers were visible; Ulceration after ethanol, in words ([2]; 0.5 ml of 2% solution 6 hours prior to 2.0 ml/kg 95% ethanol): Mixed results; Lesion formation, in words (photographs, FIG. 1) ([3]; 10 mg, after 24 hours): complete inhibition of lesion formation; pH ([3]; dose 1 mg into stomach): 3.80 ± 1.34 pH; % WITH ULCERS ([3]; dose 1 mg, after 24 hours): 33%
